Test results published in US20230340027A1, “UBIQUITIN HIGH AFFINITY PEPTIDES, AND METHODS OF USING SAME, AND IDENTIFYING SAME” (TECHNION RESEARCH & DEVELOPMENT FOUNDATION LIMITED, priority 2020, published 2023).
One block for each molecule: values may come before it. Starred links: 1 amine or outer side, 2 acyl side, 3 side chain; linkers in the order of their positions; H or OH if unused. Positions of bridges follow the written chain, without caps; N, C: chain ends. Non-standard residues stand in square brackets, D forms with d. Residues, ends and D or L forms follow the SMILES beside them. Chains are numbered I, II in the order given. No end group written: not given here. *: point of attachment. Fluorescein(5-Mal) = O=C1OC2(c3ccc(O)cc3Oc3cc(O)ccc32)c2ccc(N3C(=O)CC(*)C3=O)cc21; CH2 = C([*:1])[*:2]

Legend:
biotin-tetra-UbK48 = target: T1, biotin-tetra-UbK48 (Homo sapiens, UniProt P0CG47); test: Fluorescence-based competitive assay for peptide screening (relative binding vs Ub4_ix); settings: 5 molar equiv unlabeled peptide, competition with Ub4_ix-FITC; fluorescence inversely proportional to affinity
T1 construct: a Ub polymer comprises Ub monomers linked to one another at lysine (Lys) residue at position 48 (K48); made in house; host or cells: total chemical synthesis (no expression host)
Procedure: Streptavidin-coated microplate (96 well plate) was washed (3×100 μl) with HEPES buffer. Then, 1 μg of biotin-tetra-UbK48 in 100 μl of HEPES buffer was incubated in each well for 30 minutes at room temperature (RT). Additional wells were kept free of biotin-tetra-UbK48 for subsequent blank subtraction. Following a washing step, unlabeled candidate peptides, including peptide-standard (Ub4_ix), were incubated in an excess amount (5 molar equiv. relative to biotin-tetra-UbK48) for 30 minutes at RT to saturate binding to the target. […] Finally, following washing, each well was treated with 100 μl of 6 M Gn·HCl at RT for 30 minutes to release the bound peptides. Then, the solution with the released peptides was transferred to Nunc black 96-well plate and fluorescence was measured (λ excitation=480 nm and λ emission=525 nm). The obtained values were then normalized, and compared with peptide standard, while the fluorescence signal was inversely proportional to the binding affinity of the peptide. The calculations of relative change in binding were performed according to the formula: Y=−[1−(a/b)]×100, where Y is the change in the signal relative to the standard Ub4_ix (in percentage); a is signal measured for each peptide variant (in relative fluorescence units); b is signal measured for Ub4_ix.
The inventors envisioned a screening strategy to proceed through four main steps, each terminated by washings with binding buffer. First, biotin tagged tetra-UbK48 was immobilized in a constant amount (1 μg per well) in streptavidin covered 96 well plate (FIG. 1(i and ii)). Then, unlabeled candidate peptides were incubated in excess in each well to saturate binding to the target. […] Finally, the bound peptides were released from wells by treatment with 6 M guanidine hydrochloride (Gn·HCl) solution followed by measuring the gained fluorescence (FIG. 1(i)). The obtained values were then compared to the fluorescence of the control well containing the unlabeled peptide to calculate relative binding. The gained fluorescence was inversely proportional to the binding affinity of the peptide candidate. […]

HeLa cells [1] = test: Flow cytometry annexin V-FITC/PI apoptosis / viability assay; assay type: cell-based
Procedure: Induction of apoptosis in Hela cell lines by treatment with cyclic peptides was determined using annexin V-FITC/propidium iodide(PI) apoptosis detection kit (BD Biosciences) according to the manufacturer's protocol. 2×10^5 cells/well were treated with inhibitors for 24- and 48-hours in a dose dependent manner. Apoptotic cells were determined as annexin V-FITC positive and PI negative. DMSO and MG132 were used as negative and positive controls respectively. Samples were acquired on a Becton Dickinson LSR II flow cytometer (BD Biosciences) and analyzed using Flowjo software.

tetra-Ub K48 = target: T2, tetra-Ub K48 (Homo sapiens, UniProt P0CG47); test: Kd determination of FITC-labeled peptides on immobilized biotin-tetra-UbK48 (fluorescence binding curve); settings: FITC-labeled peptide, tetra-Ub K48, one site non-cooperative binding model, triplicates; read-out: dissociation constant (Kd)
T2 construct: a Ub polymer comprises Ub monomers linked to one another at lysine (Lys) residue at position 48 (K48); made in house; host or cells: total chemical synthesis (no expression host)
Procedure: (1C) The bound peptides are released using Guanidinium-HCl (Gn·HCl) and the fluorescence intensity is measured. (1ii) A non-limiting schematic representation for measuring the dissociation constant (Kd) of FITC-labeled peptide with different concentrations. (1D) A FITC-labeled cyclic peptide with different concentrations are introduced in different wells for binding to the biotin-tetra Ub. (1E) Washing out the unbounded labeled cyclic peptide. (1F) The bound peptides are released using Gn·HCl and the fluorescence intensity is measured. […] All measurements were performed in triplicates.
To determine the dissociation constant (Kd) of labeled peptides, following immobilization step of biotin-tetra-UbK48, different concentrations of the labeled peptide were incubated. Then, the bound cyclic peptides were released with 6 M Gn·HCl, followed by fluorescence measurement (λex=480 nm and λem=525 nm). […]
First, biotin tagged tetra-UbK48 was immobilized in a constant amount (1 μg per well) in streptavidin covered 96 well plate (FIG. 1(i and ii)). […] Finally, the bound peptides were released from wells by treatment with 6 M guanidine hydrochloride (Gn·HCl) solution followed by measuring the gained fluorescence (FIG. 1(i)). The obtained values were then compared to the fluorescence of the control well containing the unlabeled peptide to calculate relative binding. […]

HeLa cells [2] = test: Peptide cell uptake, live-cell confocal microscopy; assay type: cell-based; settings: 1 μM, 2 hours, confocal microscope, FITC signal
Procedure: HeLa cells (CCL-2™) were purchased from ATCC®. Dulbecco's modified Eagle's medium (DMEM), Eagle's minimum essential medium (EMEM), Fetal bovine serum (FBS), L-Glutamine, antibiotics (penicillin/streptomycin), trypsin/EDTA and phosphate-buffered saline (PBS) were purchased from biological industries. Hoechst 33342 solution (20 mM), SYTOX blue (5 mM) and Lysotracker probes were purchased from Thermo-fisher. μ-Slide 8 well ibiTreat for live-cell confocal microscopy was purchased from ibidi and polylysine hydrobromide was purchased from Sigma. Distribution of fluorescent peptides in live cells was analyzed using a confocal laser scanning microscope (Confocal Zeiss LSM 710) equipped with 40×NA 1.2 water immersion objective. During CLSM analysis the samples were kept at 37° C. in a humidified chamber.
The cells were washed with PBS buffer followed by addition of fresh phenol-free optical medium and live-cell imaging was carried out using a LSM 710 laser scanning confocal microscope equipped with an environmental control module.

change in the relative fluorescence signal compared to Ub4_ix (improved binding) (biotin-tetra-UbK48): ~57%
Molecule: 24: methylene group stapled dimer of Ub4_ix_S7C, —S—CH2—S— bridge ({CH2CO}-WLYLDDCGDWWICG; thioether N-13 (inferred); also: dimer: Cys7 joined to Cys7 of second copy by -S-CH2-S- bridge) [compound 24]
early- and late stage apoptosis compared to Ub4_ix (HeLa cells [1]; HeLa cells, Annexin V/PI, 24 or 48 h): increased early- and late stage apoptosis
induction of cell death (HeLa cells [1]; Hela cells, 24- and 48-hours incubation): able to induce cell death

Molecule: CC[C@H](C)[C@@H]1NC(=O)[C@H](Cc2c[nH]c3ccccc23)NC(=O)[C@H](Cc2c[nH]c3ccccc23)NC(=O)[C@H](CC(=O)O)NC(=O)CNC(=O)[C@H](CSCSC[C@@H]2NC(=O)[C@H](CC(=O)O)NC(=O)[C@H](CC(=O)O)NC(=O)[C@H](CC(C)C)NC(=O)[C@H](Cc3ccc(O)cc3)NC(=O)[C@H](CC(C)C)NC(=O)[C@@H](Cc3c[nH]c4ccccc34)NC(=O)CSC[C@@H](C(=O)NCC(=O)N[C@@H](C)C(=O)N[C@@H](CSC3CC(=O)N(c4ccc5c(c4)C(=O)OC54c5ccc(O)cc5Oc5cc(O)ccc54)C3=O)C(N)=O)NC(=O)[C@H]([C@@H](C)CC)NC(=O)[C@H](Cc3c[nH]c4ccccc34)NC(=O)[C@H](Cc3c[nH]c4ccccc34)NC(=O)[C@H](CC(=O)O)NC(=O)CNC2=O)NC(=O)[C@H](CC(=O)O)NC(=O)[C@H](CC(=O)O)NC(=O)[C@H](CC(C)C)NC(=O)[C@H](Cc2ccc(O)cc2)NC(=O)[C@H](CC(C)C)NC(=O)[C@@H](Cc2c[nH]c3ccccc23)NC(=O)CSC[C@@H](C(=O)NCC(=O)N[C@@H](C)C(=O)N[C@@H](CSC2CC(=O)N(c3ccc4c(c3)C(=O)OC43c4ccc(O)cc4Oc4cc(O)ccc43)C2=O)C(N)=O)NC1=O (some centres unmarked) [peptide 30] (I: {CH2CO}-[dW]LYLDDCGDWWICGAC(Fluorescein(5-Mal))-NH2 / II: {CH2CO}-[dW]LYLDDCGDWWICGAC(Fluorescein(5-Mal))-NH2; linker I:7-II:7 via CH2; thioether I:N-I:13, II:N-II:13)
Kd (tetra-Ub K48): 12.3 ± 1.26 nM
cellular uptake / permeability and localization (HeLa cells [2]): permeability and cytosolic localization
cellular uptake / permeability and localization (HeLa cells [2]; listed as (Ub4_ix_S7C)2CH2-FITC): quickly and efficiently distributed within cells

change in the relative fluorescence signal compared to Ub4_ix (improved binding) (biotin-tetra-UbK48): ~70%
Molecule: peptide 23: disulfide bond containing dimeric cyclic peptide of Ub4_ix_S7C ({CH2CO}-WLYLDDCGDWWICG; thioether N-13 (inferred); also: dimer joined by disulfide bond, places not given here)

change in the relative fluorescence signal compared to Ub4_ix (improved binding) (biotin-tetra-UbK48): ~13%
Molecule: Ub4_ix_S7A: Ub4_ix analogue from Alanine scan, position 7 Ala; likely WLYLDDAGDWWICG (SEQ ID NO: 5) ({CH2CO}-WLYLDDAGDWWICG; thioether N-13 (inferred))
